“And” between values parts separate entries of the source, which are not always exact repeats. Equal values may be shown once.
System: human subjects with reduced or absent ALDH2 activity
Test: Blinded, intra-subject controlled, single dose study of oral 4-MP given before ethanol; serum acetaldehyde measured by HPLC/MS/MS and compared by ALDH2/ADH2 genotype
Assay type: in vivo
Description: A blinded, intra-subject controlled, single dose, dose escalation study of 4-MP for mitigation of acetaldehyde related toxicity in subjects with symptoms of inborn altered ethanol metabolism with concomitant ethanol exposure was undertaken.
Twenty-four subjects (n=24) were randomly selected and orally administered 1 mg/kg, 3 mg/kg, or 5 mg/kg of 4-MP, followed 30 minutes later by an oral dose of 20% ethanol ([…]).
Using the same protocol, wherein 4-MP was replaced with placebo, each of the twenty-four randomly selected subjects served as its own control.
The twenty-four randomly selected subjects were then subjected to blood sampling, and the sampled blood analyzed for acetaldehyde levels at select time points following ethanol consumption.
For acetaldehyde analysis, blood samples were prepared by dilution with an internal standard (acetaldehyde-d4), with derivatization of acetaldehyde with dinitrophenyl hydrazine in hydrochloric acid, liquid-liquid portioning and solvent exchange. The derivatization forms an acetaldehyde-dinitrophenyl hydrazine (DNPH) derivative which dramatically increases the boiling point of the molecule and thus its relative stability compared to the acetaldehyde itself (Nagy et al., Rapid Communications in Mass Spectrometry 2004, 18, 2473-2478). The derivatized analytes were separated using a Jones Chromatography (Grace-Vydac). 50 mm×2.1 mm, 3 μm column held in an oven set at 28° C. Two mobile phases were used in a gradient consisting of 30:70 acetonitrile:water versus 90:10 acetonitrile:water with 0.1% formic acid. The derivatized analyte was detected on a High Performance Liquid Chromatograph equipped with a Mass Spectrometer (HPLC/MS/MS). Quantitation was performed using a linear regression curve fit of impurities standards with 1/× weighting, prepared from dilutions of acetaldehyde in water. Samples and standards were injected at 2 μL.
All […] subjects were then genotyped for ALDH2 and ADH2 at the Alcohol Research Center at Indiana University using (i) genomic DNA isolation and (ii) TaqMan assay for allelic discrimination. • i. Genomic DNA isolation: DNA was first isolated using the “Hot:SHOT” method for isolating PCR quality genomic DNA (Truett et al., Biotechniques 2000, 29(1), 52, 54). Briefly, blood blotted on filter paper (3 mm circle) was placed in the well of a 96-well plate and mixed with 75 μL 25 mM NaOH/0.3 mM EDTA solution and heated to 95° C. for 40 minutes, followed by neutralization with 75 μL 40 mM Tris-HCl ([…]) solution. 1-5 microliters were used for each PCR. • ii. TaqMan Assay for Allelic Discrimination: The allelic discrimination assay used a multiplexed (more than one primer/probe pair per reaction), end-point (data is collected at the end of the PCR process) assay. Each assay mix contained two different TaqMan probes (Applied BioSystems, Foster City, Calif.), labeled with VIC or FAM fluorescent reporter dye, which bound preferentially to one of the alleles. The genotype of each sample was determined by the fluorescence levels of the reporter dyes and was clustered on a graph with other samples of the same genotype. Each reaction contained 5 μL of 2×TaqMan Universal PCR Mastermix, No AmpErase UNG, 3.75 μL of water, 0.25 μL, of 40× Assay Mix, and 1 μL of DNA sample. Eight or eleven controls were included on each 96-well plate: two no template controls, two or three heterozygous samples, and two or three of each of the homozygous samples. Thermocycling was carried out in ND Research PTC-200 thermocyclers. The PCR products were then analyzed in an ABI PRISM® 7300 Sequence Detection System (SOS) instrument. SDS Software 1.3.1 converted the raw data to pure dye components and ploted the results of the allelic discrimination on a scatter plot of Allele X versus Allele Y (e.g. ADH2*1 versus ADH2*2); each genotype appeared on the graph as a cluster of points. […]

[1] = Groups A and D (reduced ALDH2 activity, ADH2*1/ADH2*1 or ADH2*1/ADH2*2), n=6, 1 mg/kg 4-MP oral, then ethanol
[2] = Groups A, B, D, F and G (reduced or absent ALDH2 activity), n=23, 1, 3 or 5 mg/kg 4-MP
[3] = Groups F and G (reduced or absent ALDH2 activity, ADH2*2/ADH2*2), n=6, 1 mg/kg 4-MP oral, then ethanol

SMILES: Cc1cn[nH]c1 [4-MP, 4-methylpyrazole]
- Acetaldehyde AUC0-8H mean [1]: 162 ± 18.7 µg·h/mL and 162 µg·h/mL
- Cmax mean (serum acetaldehyde) [1]: 41.3 µg/mL
- Peak mean acetaldehyde concentration in the blood (FIG. 2) (Groups A and D, 1 mg/kg 4-MP): can be reduced
- Reduction in Cmax mean relative to placebo (Groups A and D, 1 mg/kg 4-MP): approximately 36%
- Acetaldehyde AUC0-8H mean [2]: 182 µg·h/mL
- Cmax mean (serum acetaldehyde) [2]: 64.2 µg/mL
- Peak mean acetaldehyde concentration in the blood (FIG. 3) (Groups F and G (ADH2*2/ADH2*2), 1 mg/kg 4-MP): not reduced
- Acetaldehyde AUC0-8H mean [3]: 221 µg·h/mL
- Cmax mean (serum acetaldehyde) [3]: 89.2 µg/mL
- Peak mean acetaldehyde concentration in the blood (FIG. 4) (all subjects with reduced or absent ALDH2 activity, 1, 3 or 5 mg/kg 4-MP): not reduced

From patent US20120322843A1, “GENOTYPE SPECIFIC METHODS FOR TREATING HUMAN SUBJECTS USING 4-METHYLPYRAZOLE” (RAPTOR THERAPEUTICS INC., priority 2009, published 2012)
